In experiment [1] the test system is male mice of ddY line. Briefly: Survival time under hypoxia (aeration with 96% nitrogen and 4% oxygen). It is filed as in vivo. Particulars: 50 mg/kg, i.p., 60 minutes before aeration with 96% nitrogen and 4% oxygen; time to respiratory arrest. Put shortly: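 Fasted (24 h) male ddY mice, 5–6 weeks old, 10 per group, dosed intraperitoneally. Survival time to respiratory arrest was recorded.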

The subject of experiment [2] is male mice of ddY line. It is filed as in vivo. The note with it: 50 mg/kg, i.p., 60 minutes before KCN (3.0 mg/kg) tail intravenous injection; for Survival Time ±S.E.: time to respiratory arrest.
A further experiment concerns male rats of SD line. Briefly: High cholesterol feed: blood viscosity, serum total cholesterol, triglyceride, GOT. It is filed as in vivo. Particulars: 100 mg/kg/day, p.o., 4 days.
A further experiment relates to red blood cells. Briefly: Inhibition of thermal hemolysis of red blood cells. It is filed as cell-based, donryu rats. The note with it: Rattus norvegicus, Erythrocyte, 20 min, 53°C for 20 minutes, read-out: Hemolysis Inhibition Ratio (%) against Control; for inhibition at 10 µM: 0.01 mM; for inhibition at 50 µM: 0.05 mM; for inhibition at 100 µM: 0.1 mM; for inhibition at 200 µM: 0.2 mM; for inhibition at 500 µM: 0.5 mM.

For experiment [3], the system named is rats of diabetes mellitus. Nature of the experiment: Blood sugar level in streptozotocin-induced diabetes mellitus. The note with it: 50 mg/kg, i.o.; administered for 1 week beginning 1 week after streptozotocin (40 mg/kg); serum. It is filed as in vivo, male rats of Wistar line. The method in brief:
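Male Wistar rats, 8 weeks old (5 per group), made diabetic with streptozotocin 40 mg/kg i.v.; from 1 week later, test drug given orally for 1 week, then 24 h fast. Serum glucose measured in vena cava blood taken under Nembutal anaesthesia.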

The next experiment relates to male rats of SHR line. Briefly: Blood pressure in SHR rats. The note with it: 10 mg/kg, p.o., 2 weeks. It is filed as in vivo. On the procedure: In this experiment, 12-week-old male rats of SHR line (5 to 6 individuals per one group) were used after rearing them for 1 week with normal feed. Oral administration of each test drug has been carried out for 2 weeks and then blood pressure (mmHg) was measured using a small animal hemomanometer (UR-1000).

The next experiment relates to erythrocytes. Briefly: Erythrocyte deformability (filtration through 5 µm filter) after oral administration. It is filed as in vivo, male rats of Wistar line. Particulars: 30 mg/kg, p.o.; blood collected 90 minutes after administration; number of filtered erythrocytes. Put shortly:
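Male Wistar rats, 9 weeks old and fasted 24 h, were dosed orally; 90 min later vena cava blood was drawn under Nembutal anaesthesia. Blood was forced through a 5 µm filter under constant He flow, and deformability was expressed from the number of erythrocytes filtered in a fixed time.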

The next experiment relates to male SD rats. Nature of the experiment: Thrombus formation in abdominal vena cava. It is filed as in vivo. Particulars: 30 mg/kg, p.o.; dry weight of thrombus. The method in brief:
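Anaesthetised male SD rats (130–210 g) had the infrarenal vena cava clipped 5 min and reflowed 5 min, then ligation just below the renal vein; thrombus was removed 2 h later, dried (80 °C, ≥12 h) and weighed. Oral dosing was 90 min before clipping, or for 7 days in 6-week-old rats, induced day 8.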

Read-outs that look alike come from different tables or passages of the source.

`C[C@H](CCCC(C)(O)CO)[C@H]1CC[C@H]2[C@@H]3[C@H](O)C[C@@H]4C[C@H](O)CC[C@]4(C)[C@H]3C[C@H](O)[C@]12C` (stereo partly drawn) [Illustrative Example 4, 5β-cholestane-3α,7α,12α,25,26-pentol]: the “Survival Time ±S.E.” value with male mice of ddY line [1] is 118.0 ± 5.11 s. In the experiment on male mice of ddY line [2], the “Lethality (%)” value is reported as 70% and the “Survival Time ±S.E.” value was determined as 119.0 ± 7.12 s. For the same compound, in the experiment on male rats of SD line, the “GOT ±S.E.” value is 116 ± 31 IU/ℓ, the “Total Cholesterol ±S.E.” value is 450 ± 59 mg/dL and the “Triglyceride ±S.E.” value turned out to be 108 ± 38 mg/dL. Also, in the experiment with red blood cells, the inhibition at 10 µM worked out at 27%, the inhibition at 50 µM is 25%, the inhibition at 100 µM worked out at 41% and the inhibition at 200 µM was determined as 42%. The inhibition at 500 µM in the experiment on red blood cells turned out to be 49%. The “Blood Sugar Level ± S.E.” value in experiment [3] is 133 ± 5.4 mg/dL. In addition, in the experiment with male rats of SHR line, the “Blood Pressure ±S.E. Average” value stood at 144 ± 4.4 mmHg and the “Blood Pressure ±S.E. Maximum” value was 181 ± 2.5 mmHg. Further, in the experiment on erythrocytes, the “Erythrocyte Deformation: Erythrocyte counts ±S.E.” value (from here on “Erythrocyte Deformation”) is listed as 3.93 ± 0.38 × 10⁷. The “Antithrombotic Effect: Thrombus weight ±S.E.” value (“Antithrombotic Effect” below) with male SD rats came to 14.1 ± 2.11 mg.

Consider `CC(C)C(O)CC[C@@H](C)[C@H]1CC[C@H]2[C@@H]3[C@H](O)C[C@@H]4C[C@H](O)CC[C@]4(C)[C@H]3C[C@H](O)[C@]12C` (stereo partly drawn) [Illustrative Example 5, 3α,7α,12α,24-tetrahydroxy-5β-cholestane], for which, in the experiment on male mice of ddY line [1], the “Survival Time ±S.E.” value was found to be 110.5 ± 6.71 s. Moreover, in the experiment on male mice of ddY line [2], the “Lethality (%)” value stood at 80% and the “Survival Time ±S.E.” value is 101.1 ± 7.8 s. Besides, in the experiment on male rats of SD line, the “GOT ±S.E.” value came to 131 ± 21 IU/ℓ, the “Total Cholesterol ±S.E.” value was 453 ± 49 mg/dL and the “Triglyceride ±S.E.” value was 110 ± 29 mg/dL. Also, in the experiment on red blood cells, the inhibition at 10 µM was 25%, the inhibition at 50 µM turned out to be 21%, the inhibition at 100 µM came to 33% and the inhibition at 200 µM amounted to 51%. Moreover, the inhibition at 500 µM with red blood cells was 58%. Also, in experiment [3], the “Blood Sugar Level ± S.E.” value was 170 ± 7.2 mg/dL. In the experiment on male rats of SHR line, the “Blood Pressure ±S.E. Average” value is listed as 151 ± 4.6 mmHg and the “Blood Pressure ±S.E. Maximum” value is on record as 185 ± 7.7 mmHg. Besides, the “Erythrocyte Deformation” value in the experiment on erythrocytes is given as 3.51 ± 0.65 × 10⁷. The “Antithrombotic Effect” value with male SD rats amounted to 13.8 ± 3.77 mg.

In the case of `C[C@H](CCCO)[C@H]1CC[C@H]2[C@@H]3[C@H](O)C[C@@H]4C[C@H](O)CC[C@]4(C)[C@H]3C[C@H](O)[C@]12C` [Illustrative Example 6, 3α,7α,12α,24-tetrahydroxy-5β-cholan], the “Survival Time ±S.E.” value with male mice of ddY line [1] amounted to 115.4 ± 2.24 s. Also, in the experiment on male mice of ddY line [2], the “Lethality (%)” value is given as 80% and the “Survival Time ±S.E.” value was 105.3 ± 6.84 s. Also, in the experiment with male rats of SD line, the “GOT ±S.E.” value was found to be 136 ± 10 IU/ℓ, the “Total Cholesterol ±S.E.” value is 451 ± 50 mg/dL and the “Triglyceride ±S.E.” value is 107 ± 21 mg/dL. Further, in the experiment on red blood cells, the inhibition at 10 µM came out at 24%, the inhibition at 50 µM was 22%, the inhibition at 100 µM came to 38% and the inhibition at 200 µM is 51%. Moreover, the inhibition at 500 µM in the experiment on red blood cells was determined as 59%. For the same compound, in experiment [3], the “Blood Sugar Level ± S.E.” value was found to be 159 ± 5.7 mg/dL. For the same compound, in the experiment with male rats of SHR line, the “Blood Pressure ±S.E. Average” value is listed as 148 ± 8.4 mmHg and the “Blood Pressure ±S.E. Maximum” value was determined as 187 ± 6.3 mmHg. Besides, in the experiment on erythrocytes, the “Erythrocyte Deformation” value is recorded as 3.71 ± 0.48 × 10⁷. Also, in the experiment with male SD rats, the “Antithrombotic Effect” value amounted to 12.4 ± 2.39 mg.

The record behind these values is patent publication EP0489933A1, “BILE ALCOHOL AND DRUG CONTAINING THE SAME AS ACTIVE INGREDIENT” (TSUMURA CO., LTD., priority 1990, dated 1992).
